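How tested: cells in 96-well plates exposed to compound for 48 hours at five concentrations. GI50 = concentration required for 50% inhibition of growth. Definition used: TGI = concentration required for complete inhibition of growth.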
Tests used:
Assay in all cases: inhibition of tumour cell growth, NCI panel, 48 h
[1] = test system: M14 melanoma
[2] = test system: MOLT-4 leukemia
[3] = test system: NCI-H522 lung
[4] = test system: 786-0 renal
[5] = test system: OVCAR-5 ovarian
[6] = test system: OVCAR-3 ovarian
[7] = test system: HOP-92 NSCLC
[8] = test system: NCI/ADR-RES ovarian
[9] = test system: SF-295 CNS
[10] = test system: NCI-H226 lung

Row | SMILES | GI50 [1] | TGI [1] | GI50 [2] | TGI [2] | GI50 [3] | TGI [3] | GI50 [4] | TGI [4] | GI50 [5] | TGI [5] | GI50 [6] | TGI [6] | GI50 [7] | TGI [7] | GI50 [8] | TGI [8] | GI50 [9] | TGI [9] | GI50 [10] | TGI [10]
1 | Cc1ccc(NC2=CC(=O)C(=O)c3ccccc32)cc1 | 1.9 µM | 3.79 µM | 3.71 µM | > 100 µM | 1.45 µM | 3.18 µM | 15 µM | > 100 µM | 1.9 µM | 3.54 µM | 1.66 µM | 4.86 µM | 5.71 µM | 20.2 µM | 2.17 µM | 17.4 µM | 1.7 µM | 3.15 µM | 1.92 µM | 4.46 µM
2 | Cc1cn2c(/C=C3\C(=O)N(C)c4ccc(Cl)cc43)c(C)nc2s1 | 3.3 µM | 32.1 µM | 3.1 µM | 15.9 µM | 2.76 µM | 7.76 µM | 4.92 µM | 21.7 µM | 3.16 µM | 12.2 µM | 2.55 µM | 6.93 µM | 6.3 µM | 45.4 µM | 1.9 µM | 5.66 µM | 3.63 µM | > 100 µM | 18.5 µM | > 100 µM
3 | CCN(CC)CCCNc1cc(OC)c(OC)c2cccnc12 | 12.6 µM | 37.6 µM | 3.27 µM | 8.88 µM | 2.38 µM | 10.5 µM | 12 µM | 31.3 µM | 20.6 µM | 51.1 µM | 2.19 µM | 5.13 µM | 28.4 µM | 62.8 µM | 15.6 µM | 49 µM | 7.74 µM | 33.1 µM | 15.2 µM | 37.7 µM
4 | OCC1OC(n2cnc3c(NCc4ccccc4O)ncnc32)C(O)C1O (stereo not given) | 0.756 µM | 11.8 µM | 0.596 µM | > 38 µM | 0.0939 µM | 1.54 µM | 0.571 µM | 7.7 µM | 1.15 µM | > 67.1 µM | 0.388 µM | 2.08 µM | 0.709 µM | 7.51 µM | 0.435 µM | 24.4 µM | 6.48 µM | > 56.7 µM | 8.65 µM | 23.2 µM
5 | CC(=O)/C=C/c1ccc(N(CCO)Cc2ccc(C(C)(C)C)cc2)cc1 | 48.9 µM | 200 µM | 30.1 µM | 142 µM | 84.8 µM | 237 µM | 51.3 µM | 184 µM | 63.3 µM | 211 µM | 60.3 µM | 187 µM | 27.6 µM | 156 µM | 39.1 µM | 174 µM | 40.3 µM | 176 µM | 73.3 µM | 248 µM

Source: PubChem BioAssay (NCI)
